From US8404720B2, “Aryl sulfonamide amine compounds and their use as 5-HT6 ligands” (Suven Life Sciences Limited, priority 2008, dated 2013) come the findings set out here.

Data set [1] has as its target Human 5-HT6 Receptor (Homo sapiens, UniProt P50406). The experiment in a line: Binding Assay for Human 5-HT6 Receptor ([3H]LSD radioligand). The conditions noted are these: [3H]LSD 1.5 nM, human recombinant receptor in HEK293 cells; for % Inhibition at 100 nM: 100 nM test compound; for % Inhibition at 1000 nM: 1000 nM test compound; for % Inhibition at 10 nM: 10 nM test compound.
Protocol: Receptor source: Human recombinant expressed in HEK293 cells
Radioligand: [^3H]LSD (60-80 Ci/mmol)
Final ligand concentration— [1.5 nM]
Non-specific determinant: Methiothepin mesylate— [0.1 μM]
Reference compound: Methiothepin mesylate
Positive control: Methiothepin mesylate
Reactions were carried out in 50 μM TRIS-HCl (pH 7.4) containing 10 μM MgCl2, 0.5 mM EDTA for 60 minutes at 37° C. The reaction was terminated by rapid vacuum filtration onto glass fiber filters. Radioactivity trapped onto the filters was determined and compared to control values in order to ascertain any interactions of test compound(s) with the cloned serotonin 5-HT6 binding site.

The test system of data set [2] is Male Wister rats. The experiment in a line: Object Recognition Task Model. The conditions noted are these: rat, 3 mg/kg p.o.; for Exploration time mean ± S.E.M (sec), first value column / Exploration time mean ± S.E.M (sec), second value column: choice trial T2; for Exploration time mean ± S.E.M (sec), first value column: first of two columns (sub-head not printed, presumably familiar object); for Exploration time mean ± S.E.M (sec), second value column: second of two columns (sub-head not printed, presumably novel object); for Inference: object recognition task. In kind it is in vivo. The method, then: The cognition-enhancing properties of compounds of this invention were estimated using a model of animal cognition: the object recognition task model.
Male Wister rats (230-280 grams) obtained from N. I. N. (National Institute of Nutrition, Hyderabad, India) was used as experimental animals. Four animals were housed in each cage. Animals were kept on 20% food deprivation before one day and given water ad libitum throughout the experiment and maintained on a 12 hours light/dark cycle. Also the rats were habituated to individual arenas for 1 hour in the absence of any objects.
One group of 12 rats received vehicle (1 mL/Kg) orally and another set of animals received compound of the formula (I) either orally or i.p., before one hour of the familiar (T1) and choice trial (T2).
The experiment was carried out in a 50×50×50 cm open field made up of acrylic. In the familiarization phase, (T1), the rats were placed individually in the open field for 3 minutes, in which two identical objects (plastic bottles, 12.5 cm height×5.5 cm diameter) covered in yellow masking tape alone (a1 and a2) were positioned in two adjacent corners, 10 cm. from the walls. After 24 hours of the (T1) trial for long-term memory test, the same rats were placed in the same arena as they were placed in T1 trial. Choice phase (T2) rats were allowed to explore the open field for 3 minutes in presence of one familiar object (a3) and one novel object (b) (Amber color glass bottle, 12 cm high and 5 cm in diameter). Familiar objects presented similar textures, colors and sizes. During the T1 and T2 trial, explorations of each object (defined as sniffing, licking, chewing or having moving vibrissae whilst directing the nose towards the object at a distance of less than 1 cm) were recorded separately by stopwatch. Sitting on an object was not regarded as exploratory activity, however, it was rarely observed.
T1 is the total time spent exploring the familiar objects (a1+a2).
T2 is the total time spent exploring the familiar object and novel object (a3+b).
The object recognition test was performed as described by Ennaceur, A., Delacour, J., A new one-trial test for neurobiological studies of memory in rats—Behavioural data, Behay. Brain Res., 1988, 31, 47-59.

Data set [3] is described as follows: Rodent Pharmacokinetic Study. It counts as in vivo, Male wistar rats. The conditions noted are these: Wistar/Male rat; for AUCt / T1/2 / Tmax / Cmax: 10 mg/kg, 50% PEG-400 in water for injection; for Cmax: plasma; for Bioavailability: oral 10 mg/kg versus intravenous. The protocol: Male wistar rats (230-280 grams) obtained from NIN (National Institute of Nutrition, Hyderabad, India) were used as an experimental animal.
Three to five animals were housed in each cage. Animals were kept fasted over night and maintained on a 12 hours light/dark cycle. […]
At each time point blood was collected by jugular vein. Plasma was stored frozen at −20° C. until analysis. The concentrations of the NCE compound in plasma were determined using LC-MS/MS method.
Schedule time points: Pre dose. 0.25, 0.5, 1, 1.5, 2, 3, 4, 6, 8, 10, 12 and 24 hours after dosing (n=3). The NCE compounds were quantified in plasma by validated LC-MS/MS method using solid phase extraction technique. NCE compounds were quantified in the calibration range of 2-2000 ng/mL in plasma. Study samples were analyzed using calibration samples in the batch and quality control samples spread across the batch.
Pharmacokinetic parameters Cmax, Tmax, AUCt, AUCinf, half life, volume of distribution, clearance, mean residence time and thereby oral bioavailability were calculated by non-compartmental model using software WinNonlin version 5.1.

Data set [4] relates to rats. The experiment in a line: Water Maze (scopolamine induced reversal). In kind it is in vivo. To be noted: p.o. The protocol: The water maze apparatus consisted of a circular pool (1.8 m diameter, 0.6 m high) constructed in black Perspex (TSE systems, Germany) filled with water (24±2° C.) and positioned underneath a wide-angled video camera to track animal. The 10 cm^2 perspex platform, lying 1 cm below the water surface, was placed in the centre of one of the four imaginary quadrants, which remained constant for all rats. The black Perspex used in the construction of the maze and platform offered no intramaze cues to guide escape behavior. By contrast, the training room offered several strong extramaze visual cues to aid the formation of the spatial map necessary for escape learning. An automated tracking system, [Videomot 2 (5.51), TSE systems, Germany] was employed. This program analyzes video images acquired via a digital camera and an image acquisition boards that determined path length, swim speed and the number of entries and duration of swim time spent in each quadrant of the water maze.

A short description of data set [5]: Rodent Brain Penetration Study. In kind it is in vivo, Male Wister rats. The conditions noted are these: Wistar/Male rat, Intravenous infusion, 1 mg/kg, brain/plasma. The method, then:
Male Wister rats (230-280 grams) obtained from NIN (National Institute of Nutrition, Hyderabad, India) was used as an experimental animal. Three animals were housed in each cage. Animals were given water and food ad libitum throughout the experiment, and maintained on a 12 hours light/dark cycle.
Brain penetration was determined at steady state in rat. One day prior to dosing day, male wistar rats (225-250 grams) were anesthetized with halothane for surgical placement of jugular and femoral vein catheters. After surgery, the rats were housed in individual rat infusion cage connected with infusion components (Instech Solomon; Plymouth Meeting, Pa. USA) and allowed free access to food and water
NCE compound was dissolved in water and administered at a constant infusion rate (5 mL/kg/hr) over 6-10 hours at a target dose rate of 1.0 mg free base/kg/h. Blood samples were removed during the latter part of the infusion to confirm steady-state blood concentrations, brain and blood was collected and estimated. Animals will be sacrificed to collect the plasma and brain tissue and was homogenized. Plasma and Brain was stored frozen at −20° C. until analysis. The concentrations of the NCE compound in plasma and Brain were determined using LC-MS/MS method.
The NCE compounds were quantified in plasma and brain homogenate by validated LC-MS/MS method using solid phase extraction technique. NCE compounds were quantified in the calibration range of 1-500 ng/mL in plasma and brain homogenate. Study samples were analyzed using calibration samples in the batch and quality control samples spread across the batch. Extents of brain-blood ratio were calculated (Cb/Cp).

Sequence of Human 5-HT6 Receptor (P50406 whole entry): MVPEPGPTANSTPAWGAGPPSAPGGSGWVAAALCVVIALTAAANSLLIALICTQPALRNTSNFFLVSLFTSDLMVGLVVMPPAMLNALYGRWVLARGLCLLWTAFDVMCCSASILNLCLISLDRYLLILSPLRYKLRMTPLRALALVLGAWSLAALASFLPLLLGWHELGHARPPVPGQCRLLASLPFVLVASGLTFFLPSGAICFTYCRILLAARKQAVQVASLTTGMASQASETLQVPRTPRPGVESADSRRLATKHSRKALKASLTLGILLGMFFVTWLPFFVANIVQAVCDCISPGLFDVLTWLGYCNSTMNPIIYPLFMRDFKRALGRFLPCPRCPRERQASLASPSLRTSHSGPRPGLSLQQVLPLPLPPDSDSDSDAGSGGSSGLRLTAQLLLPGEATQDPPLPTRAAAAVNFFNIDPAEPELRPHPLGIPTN

Consider `CN1CCC(Nc2cc(NS(=O)(=O)c3ccc(F)cc3)ccc2Cl)CC1` [Example 2, 4-Fluoro-N-[4-Chloro-3-(1-methylpiperidin-4-ylamino)phenyl] benzenesulfonamide], for which, in data set [1], the “% Inhibition at 100 nM” value stood at 69.45% and the “% Inhibition at 1000 nM” value was 96.73%.

For the compound `Cc1ccc(S(=O)(=O)Nc2ccc(Cl)c(NC3CCN(C)CC3)c2)cc1` [Example 3, 4-Methyl-N-[4-Chloro-3-(1-methylpiperidin-4-ylamino)phenyl] benzenesulfonamide], in data set [1], the “% Inhibition at 100 nM” value was 78.66% and the “% Inhibition at 1000 nM” value is reported as 98.42%.

Regarding `CN1CCC(Nc2cc(NS(=O)(=O)c3ccccc3Br)ccc2Cl)CC1` [Example 5, 2-Bromo-N-[4-Chloro-3-(1-methylpiperidin-4-ylamino)phenyl] benzenesulfonamide], in data set [1], the “% Inhibition at 100 nM” value came to 93.8% and the “% Inhibition at 1000 nM” value was determined as 101.6%.

For `COc1ccc(NS(=O)(=O)c2ccc(F)cc2)cc1NC1CCN(C)CC1` [Example 6, 4-Fluoro-N-[4-Methoxy-3-(1-methylpiperidin-4-ylamino)phenyl] benzenesulfonamide], in data set [2], the “Exploration time mean ± S.E.M (sec), first value column” value is 10.02 ± 1.54 s; the “Exploration time mean ± S.E.M (sec), second value column” value was found to be 15.27 ± 1.32 s; the Inference result is “Active”. Moreover, in data set [3] (Intravenous), the AUCt stood at 4314 ± 967 ng·h/mL, the T1/2 was found to be 2.18 ± 1.29 h, the Tmax is on record as 0.14 ± 0.10 h and the Cmax is on record as 2885 ± 401 ng/mL. Further, in data set [3] (Oral), the AUCt was found to be 1421 ± 106 ng·h/mL, the T1/2 came to 5.35 ± 3.65 h, the Tmax was determined as 2.17 ± 1.44 h and the peak concentration (Cmax) worked out at 372 ± 85 ng/mL. The compound also gave a Bioavailability in data set [3] of 34%. Moreover, in data set [1], the “% Inhibition at 10 nM” value was found to be 20.71%, the “% Inhibition at 100 nM” value is given as 90.83% and the “% Inhibition at 1000 nM” value is recorded as 99.64%. In addition, in data set [4], the “Scopolamine Induced Reversal” value is recorded as “≦3 mg/kg, p.o”. Also, the “Steady State Brain Penetration (Cb/Cp)” value in data set [5] is on record as 0.05 ± 0.01.

As to `COc1ccc(NS(=O)(=O)c2ccccc2Br)cc1NC1CCN(C)CC1` [Example 8, 2-Bromo-N-[4-Methoxy-3-(1-methylpiperidin-4-ylamino)phenyl] benzenesulfonamide], in data set [2], the “Exploration time mean ± S.E.M (sec), first value column” value was 6.72 ± 1.95 s; the “Exploration time mean ± S.E.M (sec), second value column” value came out at 9.58 ± 2.26 s; the Inference entry is “Active”. Moreover, in data set [3] (Intravenous), the AUCt is 9919 ± 701 ng·h/mL, the T1/2 is reported as 2.18 ± 0.54 h, the Tmax came out at 0.08 ± 0.0 h and the maximum concentration (Cmax) is recorded as 2645 ± 154 ng/mL. Further, in data set [3] (Oral), the AUCt is 6222 ± 1025 ng·h/mL, the T1/2 is 5.40 ± 2.56 h, the Tmax worked out at 1.67 ± 1.15 h and the Cmax is 964 ± 110 ng/mL. This compound registered a Bioavailability in data set [3] of 63%. Also, in data set [1], the “% Inhibition at 10 nM” value is 71.95%, the “% Inhibition at 100 nM” value is on record as 99.38% and the “% Inhibition at 1000 nM” value is on record as 100.63%. Besides, the “Scopolamine Induced Reversal” value in data set [4] is “≦3 mg/kg, p.o”. Further, in data set [5], the “Steady State Brain Penetration (Cb/Cp)” value was found to be 0.04 ± 0.01.

For the compound `COc1ccc(NS(=O)(=O)c2ccc(C)cc2)cc1NC1CCN(C)CC1` [Example 10, 4-Methyl-N-[4-Methoxy-3-(1-methylpiperidin-4-ylamino)phenyl] benzenesulfonamide], in data set [1], the “% Inhibition at 100 nM” value worked out at 88.26% and the “% Inhibition at 1000 nM” value amounted to 99.2%.

On to `CN1CCC(Nc2cccc(NS(=O)(=O)c3ccccc3Br)c2)CC1` [Example 11, 2-Bromo-N-[3-(1-methylpiperidin-4-ylamino)phenyl] benzenesulfonamide], for which, in data set [1], the “% Inhibition at 10 nM” value was found to be 8.56%, the “% Inhibition at 100 nM” value was 64.11% and the “% Inhibition at 1000 nM” value is recorded as 94.73%.

For the compound `CN1CCC(Nc2cccc(NS(=O)(=O)c3ccc(F)cc3)c2)CC1` [Example 13, 4-Fluoro-N-[3-(1-methylpiperidin-4-ylamino)phenyl] benzenesulfonamide], in data set [1], the “% Inhibition at 100 nM” value is given as 34.95% and the “% Inhibition at 1000 nM” value was found to be 71.2%.

As for `Cc1ccc(S(=O)(=O)Nc2cccc(NC3CCN(C)CC3)c2)cc1` [Example 14, 4-Methyl-N-[3-(1-methylpiperidin-4-ylamino)phenyl] benzenesulfonamide], in data set [1], the “% Inhibition at 100 nM” value was 45.25% and the “% Inhibition at 1000 nM” value turned out to be 80.78%.

Regarding `Cc1ccc(NS(=O)(=O)c2ccc(F)cc2)cc1NC1CCN(C)CC1` [Example 17, 4-Fluoro-N-[4-Methyl-3-(1-Methylpiperidin-4-ylamino)phenyl] benzenesulfonamide], in data set [1], the “% Inhibition at 100 nM” value was 64.27% and the “% Inhibition at 1000 nM” value came out at 93.00%.

For the compound `Cc1ccc(S(=O)(=O)Nc2ccc(C)c(NC3CCN(C)CC3)c2)cc1` [Example 18, 4-Methyl-N-[4-Methyl-3-(1-Methylpiperidin-4-ylamino)phenyl] benzenesulfonamide], in data set [1], the “% Inhibition at 100 nM” value is 63.42% and the “% Inhibition at 1000 nM” value came to 92.37%.

What is called % Inhibition is the drop in the measured response relative to a control, in per cent. As usually defined, the Tmax is the time at which the peak concentration occurs. One may read the Cmax as the maximum level reached in the sampled fluid or tissue.
